Test results: patent US20250230147A1, “LACTAMS AS CBL-B INHIBITORS” (Genentech, Inc., priority 2021, published 2025)
Structures can show the parent of a compound that is named as a salt.

Assays:
Cbl-b = Cbl-b (Homo sapiens (Human), UniProt Q13191); assay: Cbl-b LCK Ub TR-FRET assay (Cbl-b Lck HTRF); assay type: biochemical
Method in brief: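 TR-FRET (340 nm excitation, 615/665 nm emission) read after adding HA-ubiquitin–UBE2D2 thioester, anti-HA-D2 and streptavidin-Eu. Beforehand, compounds incubated 60 min with biotinylated Cbl-b, then 90 min with His-LCK and ATP (1 mM in 2× mix); IC50 from 10 concentrations, DMSO high and no-LCK low controls.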

c-Cbl = c-Cbl (Homo sapiens (Human), UniProt P22681); assay: C-Cbl LCK Ub TR-FRET assay (c-cbl Lck HTRF); assay type: biochemical; conditions: for (fold-selectivity): C-cbl Lck HTRF IC50 relative to Cbl-b Lck HTRF IC50
Method in brief: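 After the ubiquitination reaction, detection mixture was added and plates incubated 20 min at room temperature before reading. IC50 values were calculated with wells lacking LCK as the low control and DMSO as the high control.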

Sequence of Cbl-b (Q13191 40-426): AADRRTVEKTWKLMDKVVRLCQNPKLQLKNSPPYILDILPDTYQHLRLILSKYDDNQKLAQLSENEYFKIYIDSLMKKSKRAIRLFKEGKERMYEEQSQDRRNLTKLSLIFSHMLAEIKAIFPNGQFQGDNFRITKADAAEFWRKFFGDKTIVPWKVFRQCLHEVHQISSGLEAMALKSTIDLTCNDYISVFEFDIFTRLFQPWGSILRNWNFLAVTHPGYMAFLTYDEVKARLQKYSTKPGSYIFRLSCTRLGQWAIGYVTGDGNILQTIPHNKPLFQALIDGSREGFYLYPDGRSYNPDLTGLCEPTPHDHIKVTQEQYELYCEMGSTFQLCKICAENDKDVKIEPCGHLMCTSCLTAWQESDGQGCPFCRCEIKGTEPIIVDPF
Sequence of c-Cbl (P22681 47-435): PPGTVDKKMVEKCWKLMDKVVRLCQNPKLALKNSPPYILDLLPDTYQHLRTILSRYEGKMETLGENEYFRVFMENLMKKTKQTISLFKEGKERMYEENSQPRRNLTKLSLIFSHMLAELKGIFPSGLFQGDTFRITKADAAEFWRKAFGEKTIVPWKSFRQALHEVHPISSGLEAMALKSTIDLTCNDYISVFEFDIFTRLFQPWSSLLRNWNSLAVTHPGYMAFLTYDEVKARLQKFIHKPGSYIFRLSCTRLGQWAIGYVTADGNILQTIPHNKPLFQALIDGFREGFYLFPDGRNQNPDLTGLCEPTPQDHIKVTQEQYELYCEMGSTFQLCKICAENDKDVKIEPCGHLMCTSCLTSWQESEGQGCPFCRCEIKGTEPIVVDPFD

| IC50 (Cbl-b) [nM] | IC50 (c-Cbl) [nM] | (fold-selectivity) (c-Cbl) | Compound |
| --- | --- | --- | --- |
| 12 | 7.5 | (0.63x) | Cn1cnnc1CC1(c2cc(NCCC#N)nc(N3Cc4c(cc(CNC5(C)CCC5)cc4C(F)(F)F)C3=O)c2)CCC1 [Compound 308, 3-((4-(1-((4-methyl-4H-1,2,4-triazol-3-yl)methyl)cyclobutyl)-6-(6-(((1-methylcyclobutyl)amino)methyl)-1-oxo-4-(trifluoromethyl)isoindolin-2-yl)pyridin-2-yl)amino)propanenitrile] |
| 70 | 110 | (1.5x) | CNS(=O)(=O)CCNc1cc(C2(Cc3nncn3C)CCC2)cc(N2Cc3c(cc(CNC4(C)CCC4)cc3C(F)(F)F)C2=O)n1 [Compound 312, N-methyl-2-((4-(1-((4-methyl-4H-1,2,4-triazol-3-yl)methyl)cyclobutyl)-6-(6-(((1-methylcyclobutyl)amino)methyl)-1-oxo-4-(trifluoromethyl)isoindolin-2-yl)pyridin-2-yl)amino)ethanesulfonamide] |
| 24 | 23 | (0.95x) | Cn1cc(CNc2cc(C3(Cc4nncn4C)CCC3)cc(N3Cc4c(cc(CNC5(C)CCC5)cc4C(F)(F)F)C3=O)n2)cn1 [Compound 313, 2-(6-(((1-methyl-1H-pyrazol-4-yl)methyl)amino)-4-(1-((4-methyl-4H-1,2,4-triazol-3-yl)methyl)cyclobutyl)pyridin-2-yl)-6-(((1-methylcyclobutyl)amino)methyl)-4-(trifluoromethyl)isoindolin-1-one] |
| 570 | 480 | (0.84x) | Cn1cnnc1CC1(c2cc(NCC3CCS(=O)(=O)CC3)nc(N3Cc4c(cc(CNC5(C)CCC5)cc4C(F)(F)F)C3=O)c2)CCC1 [Compound 315, 2-(6-(((1,1-dioxidotetrahydro-2H-thiopyran-4-yl)methyl)amino)-4-(1-((4-methyl-4H-1,2,4-triazol-3-yl)methyl)cyclobutyl)pyridin-2-yl)-6-(((1-methylcyclobutyl)amino)methyl)-4-(trifluoromethyl)isoindolin-1-one] |
| 16 | 20 | (1.2x) | Cn1cnnc1CC1(c2cc(NCCc3c[nH]c4ccccc34)nc(N3Cc4c(cc(CNC5(C)CCC5)cc4C(F)(F)F)C3=O)c2)CCC1 [Compound 316, 2-(6-((2-(1H-indol-3-yl)ethyl)amino)-4-(1-((4-methyl-4H-1,2,4-triazol-3-yl)methyl)cyclobutyl)pyridin-2-yl)-6-(((1-methylcyclobutyl)amino)methyl)-4-(trifluoromethyl)isoindolin-1-one] |
| 22 | 27 | (1.2x) | Cn1cnnc1CC1(c2cc(NCC(F)(F)CO)nc(N3Cc4c(cc(CNC5(C)CCC5)cc4C(F)(F)F)C3=O)c2)CCC1 [Compound 317, 2-(6-((2,2-difluoro-3-hydroxypropyl)amino)-4-(1-((4-methyl-4H-1,2,4-triazol-3-yl)methyl)cyclobutyl)pyridin-2-yl)-6-(((1-methylcyclobutyl)amino)methyl)-4-(trifluoromethyl)isoindolin-1-one] |
| 130 | 140 | (1.1x) | CN(C)Cc1cccc(CNc2cc(C3(Cc4nncn4C)CCC3)cc(N3Cc4c(cc(CNC5(C)CCC5)cc4C(F)(F)F)C3=O)n2)c1 [Compound 318, 2-(6-((3-((dimethylamino)methyl)benzyl)amino)-4-(1-((4-methyl-4H-1,2,4-triazol-3-yl)methyl)cyclobutyl)pyridin-2-yl)-6-(((1-methylcyclobutyl)amino)methyl)-4-(trifluoromethyl)isoindolin-1-one] |
| 21 | 51 | (2.4x) | Cn1cnc(CNc2cc(C3(Cc4nncn4C)CCC3)cc(N3Cc4c(cc(CNC5(C)CCC5)cc4C(F)(F)F)C3=O)n2)c1 [Compound 320, 2-(6-(((1-methyl-1H-imidazol-4-yl)methyl)amino)-4-(1-((4-methyl-4H-1,2,4-triazol-3-yl)methyl)cyclobutyl)pyridin-2-yl)-6-(((1-methylcyclobutyl)amino)methyl)-4-(trifluoromethyl)isoindolin-1-one] |
| 18 | 23 | (1.3x) | Cn1cnnc1CC1(c2cc(NCCc3ccncc3)nc(N3Cc4c(cc(CNC5(C)CCC5)cc4C(F)(F)F)C3=O)c2)CCC1 [Compound 321, 2-(4-(1-((4-methyl-4H-1,2,4-triazol-3-yl)methyl)cyclobutyl)-6-((2-(pyridin-4-yl)ethyl)amino)pyridin-2-yl)-6-(((1-methylcyclobutyl)amino)methyl)-4-(trifluoromethyl)isoindolin-1-one] |
| 27 | 34 | (1.2x) | Cn1cnnc1CC1(c2cc(CCC(C)(C)C)nc(N3Cc4c(cc(CNC5(C)CCC5)cc4C(F)(F)F)C3=O)c2)CCC1 [Compound 322, 2-(6-(3,3-dimethylbutyl)-4-(1-((4-methyl-4H-1,2,4-triazol-3-yl)methyl)cyclobutyl)pyridin-2-yl)-6-(((1-methylcyclobutyl)amino)methyl)-4-(trifluoromethyl)isoindolin-1-one] |
| 12 | 7.6 | (0.66x) | Cn1cnnc1CC1(c2cc(-c3ccccc3)nc(N3Cc4c(cc(CNC5(C)CCC5)cc4C(F)(F)F)C3=O)c2)CCC1 [Compound 324, 2-(4-(1-((4-methyl-4H-1,2,4-triazol-3-yl)methyl)cyclobutyl)-6-phenylpyridin-2-yl)-6-(((1-methylcyclobutyl)amino)methyl)-4-(trifluoromethyl)isoindolin-1-one] |
| 47 | 41 | (0.87x) | Cn1cnnc1CC1(c2cc(CCc3ccccc3)nc(N3Cc4c(cc(CNC5(C)CCC5)cc4C(F)(F)F)C3=O)c2)CCC1 [Compound 325, 2-(4-(1-((4-methyl-4H-1,2,4-triazol-3-yl)methyl)cyclobutyl)-6-phenethylpyridin-2-yl)-6-(((1-methylcyclobutyl)amino)methyl)-4-(trifluoromethyl)isoindolin-1-one] |
| 15 | 16 | (1.1x) | Cn1cnnc1CC1(c2ccnc(N3Cc4c(cc(CNC5(C)CCC5)cc4C(F)(F)F)C3=O)c2)CCC1 [Compound 326, 2-(4-(1-((4-methyl-4H-1,2,4-triazol-3-yl)methyl)cyclobutyl)pyridin-2-yl)-6-(((1-methylcyclobutyl)amino)methyl)-4-(trifluoromethyl)isoindolin-1-one] |
| 12 | 12 | (1.0x) | Cn1cc(-c2cc(C3(Cc4nncn4C)CCC3)cc(N3Cc4c(cc(CNC5(C)CCC5)cc4C(F)(F)F)C3=O)n2)cn1 [Compound 327, 2-(6-(1-methyl-1H-pyrazol-4-yl)-4-(1-((4-methyl-4H-1,2,4-triazol-3-yl)methyl)cyclobutyl)pyridin-2-yl)-6-(((1-methylcyclobutyl)amino)methyl)-4-(trifluoromethyl)isoindolin-1-one] |
| 98 | 65 | (0.66x) | CC(=O)N1CCC(CNc2cc(C3(Cc4nncn4C)CCC3)cc(N3Cc4c(cc(CNC5(C)CCC5)cc4C(F)(F)F)C3=O)n2)CC1.Cl [Compound 329, 2-(6-(((1-acetylpiperidin-4-yl)methyl)amino)-4-(1-((4-methyl-4H-1,2,4-triazol-3-yl)methyl)cyclobutyl)pyridin-2-yl)-6-(((1-methylcyclobutyl)amino)methyl)-4-(trifluoromethyl)isoindolin-1-one hydrochloride] |

| Compound | IC50 (Cbl-b) [nM] | IC50 (c-Cbl) [nM] | (fold-selectivity) (c-Cbl) |
| --- | --- | --- | --- |
| CC1CCN(CCNc2cc(C3(Cc4nncn4C)CCC3)cc(N3Cc4c(cc(CNC5(C)CCC5)cc4C(F)(F)F)C3=O)n2)CC1 [Compound 309, 2-(4-(1-((4-methyl-4H-1,2,4-triazol-3-yl)methyl)cyclobutyl)-6-((2-(4-methylpiperidin-1-yl)ethyl)amino)pyridin-2-yl)-6-(((1-methylcyclobutyl)amino)methyl)-4-(trifluoromethyl)isoindolin-1-one formate] | 540 | 520 | – |
| CNc1cc(C2(Cc3nncn3C)CCC2)cc(N2Cc3c(cc(CNC4(C)CCC4)cc3C(F)(F)F)C2=O)n1 [Compound 310, 2-(4-(1-((4-methyl-4H-1,2,4-triazol-3-yl)methyl)cyclobutyl)-6-(methylamino)pyridin-2-yl)-6-(((1-methylcyclobutyl)amino)methyl)-4-(trifluoromethyl)isoindolin-1-one formate] | 10 | 11 | – |
| CN(C)C(=O)CNc1cc(C2(Cc3nncn3C)CCC2)cc(N2Cc3c(cc(CNC4(C)CCC4)cc3C(F)(F)F)C2=O)n1 [Compound 311, N,N-dimethyl-2-((4-(1-((4-methyl-4H-1,2,4-triazol-3-yl)methyl)cyclobutyl)-6-(6-(((1-methylcyclobutyl)amino)methyl)-1-oxo-4-(trifluoromethyl)isoindolin-2-yl)pyridin-2-yl)amino)acetamide formate] | 110 | 140 | – |
| CC(=O)NCCCCNc1cc(C2(Cc3nncn3C)CCC2)cc(N2Cc3c(cc(CNC4(C)CCC4)cc3C(F)(F)F)C2=O)n1 [Compound 314, N-(4-((4-(1-((4-methyl-4H-1,2,4-triazol-3-yl)methyl)cyclobutyl)-6-(6-(((1-methylcyclobutyl)amino)methyl)-1-oxo-4-(trifluoromethyl)isoindolin-2-yl)pyridin-2-yl)amino)butyl)acetamide formate] | 27 | 31 | – |
| CC(NCc1cc2c(c(C(F)(F)F)c1)CN(c1cccc(C3(Cc4nncn4C)CC(F)(F)C3)c1)C2=O)C1CC1 (stereo not shown) [Compound 319, 6-(((1-cyclopropylethyl)amino)methyl)-2-(3-(3,3-difluoro-1-((4-methyl-4H-1,2,4-triazol-3-yl)methyl)cyclobutyl)phenyl)-4-(trifluoromethyl)isoindolin-1-one formate] | 14 | 16 | – |
